# Test system: RSV strain A2
# Test: RSV antiviral cytoprotection assay in Hep2 cells (RSV-induced cytopathic effect, Cell TiterGlo)
# Format: cell-based, Respiratory Syncytial Virus (RSV)
# Details: human respiratory syncytial virus, HEp-2, 0.5 μM compound; RSV A2-infected Hep2 cells; % inhibition calculated from 4-parameter dose response curve, normalized to 0% and 100%; read-out: Percent inhibition at 0.5 μM
# Description: Antiviral activity against RSV was determined using an in vitro cytoprotection assay in Hep2 cells. […] The method used was similar to methods previously described in published literature (Chapman et al., Antimicrob Agents Chemother. 2007, 51(9):3346-53.)
# Hep2 cells were obtained from ATCC (Manassas, VI) and maintained in MEM media supplemented with 10% fetal bovine serum and penicillin/streptomycin. Cells were passaged twice a week and kept at subconfluent stage. Commercial stock of RSV strain A2 (Advanced Biotechnologies, Columbia, Md.) was titered before compound testing to determine the appropriate dilution of the virus stock that generated desirable cytopathic effect in Hep2 cells.
# For antiviral tests, Hep2 cells were seeded into 96-well plates 24 hours before the assay at a density of 3,000 cells/well. On a separate 96 well plate, compounds to be tested were serially diluted in cell culture media. Eight concentrations in 3-fold serial dilution increments were prepared for each tested compound and 100 uL/well of each dilution was transferred in duplicate onto plates with seeded Hep2 cells. Subsequently, appropriate dilution of virus stock previously determined by titration was prepared in cell culture media and 100 uL/well was added to test plates containing cells and serially diluted compounds. Each plate included three wells of infected untreated cells and three wells of uninfected cells that served as 0% and 100% virus inhibition control, respectively. Following the infection with RSV, testing plates were incubated for 4 days in a tissue culture incubator. After the incubation, RSV-induced cytopathic effect was determined using a Cell TiterGlo reagent (Promega, Madison, Wis.) followed by a luminescence read-out. The percentage inhibition was calculated for each tested concentration relative to the 0% and 100% inhibition controls and the EC50 value for each compound was determined by non-linear regression as a concentration inhibiting the RSV-induced cytopathic effect by 50%. Ribavirin (purchased from Sigma, St. Louis, Mo.) was used as a positive control for antiviral activity.
# Compounds were also tested for antiviral activity against RSV in Hep2 cells using a 384 well format. Compounds were diluted in DMSO using a 10-step serial dilution in 3-fold increments via automation in 4 adjacent replicates each. Eight compounds were tested per dilution plate. 0.4 uL of diluted compounds were then stamped via Biomek into 384-well plates (Nunc 142761 or 164730 w/lid 264616) containing 20 μL of media (Mediatech Inc. MEM supplemented with Glutamine, 10% FBS and Pen/Strep). DMSO and a suitable positive control compound, such as 80 μM GS-329467 or 10 μM 427346 was used for the 100% and 0% cell killing controls, respectively.
# Hep2 cells (1.0×10^5 cells/ml) were prepared as above in batch to at least 40 mls excess of the number of sample plates (8 mls cell mix per plate) and infected with vendor supplied (ABI) RSV strain A2 to arrive at an MOI of 1:1000 (virus:cell #) or 1:3000 (vol virus: cell vol). Immediately after addition of virus, the RSV infected Hep2 cell suspension was added to each stamped 384-well plate at 20 μl per well using a uFlow dispenser, giving a final volume of 40 μL/well, each with 2000 infected cells. The plates were then incubated for 5 days at 37° C. and 5% CO2. Following incubation, the plates were equilibrated to room temperature in a biosafety cabinet hood for 1.5 hrs and 40 μL of Cell-Titer Glo viability reagent (Promega) was added to each well via uFlow. Following a10-20 minute incubation, the plates were read using an EnVision or Victor Luminescence plate reader (Perkin-Elmer). The data was then uploaded and analyzed on the Bioinformatics portal under the RSV Cell Infectivity and 8-plate EC50-Hep2-384 or 8-plate EC50-Hep2-Envision protocols. […]
row,SMILES,inhibition at 0.5 µM [%]
1,COc1cc2c(cc1C(=O)N1CCCC[C@H]1c1cc3nc(N4CC[C@H](N)C4)c(C)cn3n1)CCC2 [Compound 51],100
2,Cc1cn2nc([C@@H]3CCCCN3C(=O)c3ccc4cccc(F)c4n3)cc2nc1N1CC[C@H](N)C1 [Compound 52],71
3,Cc1cn2nc([C@@H]3CCCCN3C(=O)c3[nH]c4c(C)ccc(C)c4c3C)cc2nc1N1CC[C@H](N)C1 [Compound 53],25
4,Cc1cn2nc([C@@H]3CCCCN3C(=O)c3cccc4ccnn34)cc2nc1N1CC[C@H](N)C1 [Compound 54],100
5,Cc1cc(C)n2c(C(=O)N3CCCC[C@H]3c3cc4nc(N5CC[C@H](N)C5)c(C)cn4n3)nnc2n1 [Compound 55],5
6,Cc1cn2nc([C@@H]3CCCCN3C(=O)c3c(Cl)nc4ccccn34)cc2nc1N1CC[C@H](N)C1 [Compound 56],84
7,Cc1cn2nc([C@@H]3CCCCN3C(=O)c3cc4c(OC(F)F)cccc4[nH]3)cc2nc1N1CC[C@H](N)C1 [Compound 57],13
8,Cc1ccc(S(C)(=O)=O)cc1C(=O)N1CCCC[C@H]1c1cc2nc(N3CC[C@H](N)C3)c(C)cn2n1 [Compound 58],61
9,Cc1ccc(S(N)(=O)=O)cc1C(=O)N1CCCC[C@H]1c1cc2nc(N3CC[C@H](N)C3)c(C)cn2n1 [Compound 59],52
10,Cc1cn2nc([C@@H]3CCCCN3C(=O)c3cccc4c3CCCN4)cc2nc1N1CC[C@H](N)C1 [Compound 60],100
11,Cc1cn2nc([C@@H]3CCCCN3C(=O)c3cccc4c3OCO4)cc2nc1N1CC[C@H](N)C1 [Compound 61],100
12,Cc1cn2nc([C@@H]3CCCCN3C(=O)c3cc(F)cc4nc(C)c(C)nc34)cc2nc1N1CC[C@H](N)C1 [Compound 62],11
13,Cc1cn2nc([C@@H]3CCCCN3C(=O)c3cc(Cl)ccc3OC(C)C)cc2nc1N1CC[C@H](N)C1 [Compound 63],100
14,Cc1cc(C(=O)N2CCCC[C@H]2c2cc3nc(N4CC[C@H](N)C4)c(C)cn3n2)c2[nH]ncc2c1 [Compound 64],100
15,Cc1cn2nc([C@@H]3CCCCN3C(=O)c3cccc4c3OCC(=O)N4)cc2nc1N1CC[C@H](N)C1 [Compound 65],97
16,Cc1cn2nc([C@@H]3CCCCN3C(=O)c3ccccc3OC3CCCC3)cc2nc1N1CC[C@H](N)C1 [Compound 66],95
17,CCS(=O)(=O)c1ccc(F)c(C(=O)N2CCCC[C@H]2c2cc3nc(N4CC[C@H](N)C4)c(C)cn3n2)c1 [Compound 67],21
18,Cc1cn2nc([C@@H]3CCCCN3C(=O)c3ccc4ncccc4c3)cc2nc1N1CC[C@H](N)C1 [Compound 68],37
19,Cc1cn2nc([C@@H]3CCCCN3C(=O)c3ccccc3Cl)cc2nc1N1CC[C@H](N)C1 [Compound 69],100
20,Cc1cn2nc([C@@H]3CCCCN3C(=O)c3cccc(CO)n3)cc2nc1N1CC[C@H](N)C1 [Compound 70],56
21,Cc1cn2nc([C@@H]3CCCCN3C(=O)c3ncccc3F)cc2nc1N1CC[C@H](N)C1 [Compound 71],98
22,Cc1cn2nc([C@@H]3CCCCN3C(=O)c3ccc(F)c(F)c3C)cc2nc1N1CC[C@H](N)C1 [Compound 72],100
23,Cc1cn2nc([C@@H]3CCCCN3C(=O)c3ccc(F)cc3F)cc2nc1N1CC[C@H](N)C1 [Compound 73],99
24,Cc1cn2nc([C@@H]3CCCCN3C(=O)c3nc(Cl)ccc3Cl)cc2nc1N1CC[C@H](N)C1 [Compound 74],100
25,Cc1cc(F)c(F)cc1C(=O)N1CCCC[C@H]1c1cc2nc(N3CC[C@H](N)C3)c(C)cn2n1 [Compound 75],100
26,Cc1cn2nc([C@@H]3CCCCN3C(=O)c3ncccc3Br)cc2nc1N1CC[C@H](N)C1 [Compound 76],99

row,SMILES,inhibition at 0.5 µM [%]
1,Cc1cc(F)ccc1C(=O)N1CCCC[C@H]1c1cc2nc(N3CC[C@H](N)C3)c(C)cn2n1 [Compound 77],100
2,Cc1ccc(F)cc1C(=O)N1CCCC[C@H]1c1cc2nc(N3CC[C@H](N)C3)c(C)cn2n1 [Compound 78],100
3,Cc1cn2nc([C@@H]3CCCCN3C(=O)c3c(F)cccc3F)cc2nc1N1CC[C@H](N)C1 [Compound 79],100
4,Cc1cn2nc([C@@H]3CCCCN3C(=O)c3cccc(-c4ccccc4)n3)cc2nc1N1CC[C@H](N)C1 [Compound 80],14
5,Cc1cn2nc([C@@H]3CCCCN3C(=O)c3cccc(F)n3)cc2nc1N1CC[C@H](N)C1 [Compound 81],96
6,Cc1cn2nc([C@@H]3CCCCN3C(=O)c3c(F)cccc3Cl)cc2nc1N1CC[C@H](N)C1 [Compound 82],100
7,Cc1cn2nc([C@@H]3CCCCN3C(=O)c3cc(Cl)ccn3)cc2nc1N1CC[C@H](N)C1 [Compound 83],99
8,COc1cccc(C(=O)N2CCCC[C@H]2c2cc3nc(N4CC[C@H](N)C4)c(C)cn3n2)c1C [Compound 84],100
9,COc1cc(C)c(C(=O)N2CCCC[C@H]2c2cc3nc(N4CC[C@H](N)C4)c(C)cn3n2)cc1C [Compound 85],100
10,Cc1cn2nc([C@@H]3CCCCN3C(=O)c3cc(C(F)(F)F)ccn3)cc2nc1N1CC[C@H](N)C1 [Compound 86],80
11,Cc1cn2nc([C@@H]3CCCCN3C(=O)c3cccc(C)c3C)cc2nc1N1CC[C@H](N)C1 [Compound 87],100
12,Cc1cn2nc([C@@H]3CCCCN3C(=O)c3c(C)cccc3C)cc2nc1N1CC[C@H](N)C1 [Compound 88],100
13,Cc1ccc(Cl)c(C(=O)N2CCCC[C@H]2c2cc3nc(N4CC[C@H](N)C4)c(C)cn3n2)c1 [Compound 89],100
14,Cc1ccc(Br)c(C(=O)N2CCCC[C@H]2c2cc3nc(N4CC[C@H](N)C4)c(C)cn3n2)c1 [Compound 90],100
15,COc1cc(C)ccc1C(=O)N1CCCC[C@H]1c1cc2nc(N3CC[C@H](N)C3)c(C)cn2n1 [Compound 92],100
16,Cc1cn2nc([C@@H]3CCCCN3C(=O)c3ccc(Cl)cn3)cc2nc1N1CC[C@H](N)C1 [Compound 93],44
17,COc1cc2ccccc2cc1C(=O)N1CCCC[C@H]1c1cc2nc(N3CC[C@H](N)C3)c(C)cn2n1 [Compound 94],88
18,Cc1cnc2c(C(=O)N3CCCC[C@H]3c3cc4nc(N5CC[C@H](N)C5)c(C)cn4n3)c(Cl)ccc2c1 [Compound 95],21
19,Cc1cn2nc([C@@H]3CCCCN3C(=O)c3ccc4ccccc4n3)cc2nc1N1CC[C@H](N)C1 [Compound 96],65
20,COc1ccc2ccccc2c1C(=O)N1CCCC[C@H]1c1cc2nc(N3CC[C@H](N)C3)c(C)cn2n1 [Compound 97],100
21,Cc1cn2nc([C@@H]3CCCCN3C(=O)c3cccc4c3cnn4C)cc2nc1N1CC[C@H](N)C1 [Compound 98],97
22,Cc1cn2nc([C@@H]3CCCCN3C(=O)c3csc4ccc(Br)cc34)cc2nc1N1CC[C@H](N)C1 [Compound 99],100
23,Cc1cn2nc([C@@H]3CCCCN3C(=O)c3cc(Cl)cc(Cl)n3)cc2nc1N1CC[C@H](N)C1 [Compound 100],100
24,Cc1cn2nc([C@@H]3CCCCN3C(=O)c3cn4ncccc4n3)cc2nc1N1CC[C@H](N)C1 [Compound 101],16
25,Cc1cn2nc([C@@H]3CCCCN3C(=O)c3ccc(-n4cncn4)cc3Cl)cc2nc1N1CC[C@H](N)C1 [Compound 102],16
26,Cc1cn2nc([C@@H]3CCCCN3C(=O)c3ccccc3[S+](C)[O-])cc2nc1N1CC[C@H](N)C1 (stereo partly shown) [Compound 103],100
